# Assay results taken from patent US5420145A, “Carboxylic acid derivative” (Shudo; Koichi, priority 1993, dated 1995).
# Test system: promyelocytic leukemia cell-line HL-60
# Assay: Differentiation Inducing Activity on HL-60 (differentiation to granulocyte; morphological observation of nucleus and NBT reduction)
# Type: cell-based
# Details: Homo sapiens, HL-60, read-out: ED50 (concentration which induced differentiation in the half of the cells)
# Protocol: The activities of the compounds of the above-described examples on differentiation were evaluated using promyelocytic leukemia cell-line HL-60 according to the method described in Japanese Patent Unexamined Publication No. 61-76440. The differentiation to granulocyte was evaluated by morphological observation of nucleus and measurement of ability to reduce nitroblue-tetrazolium (NBT). These are well known procedures providing adequate results in the evaluation of the cell differentiation-inducing activity of retinoids. Retinoic acid was used as the reference compound, and the concentrations which induced differentiation in the half of the cells were calculated.
row,Compound,EC50
1,"CC1=C(/C=C/C(C)=C/C=C/C(C)=C/C(=O)O)C(C)(C)CCC1 [Retinoic Acid, Retinoic acid, reference compound]",2.4 nM

# Same assay, conditions: Homo sapiens; HL-60 cells; differentiation to granulocyte; nucleus morphology and nitroblue-tetrazolium (NBT) reduction; read-out: ED50 (concentration which induced differentiation in the half of the cells)
row,Compound,EC50
1,"CC1(C)CCC(C)(C)c2cc(NC(=O)c3ccc(C(=O)O)nc3)ccc21 [Example 1, 5-(5,6,7,8-Tetrahydro-5,5,8,8-tetramethyl-2-naphthalenyl-carbamoyl)pyridine-2-carboxylic acid]",40 nM
2,"CC1(C)CCC(C)(C)c2cc(NC(=O)c3ccc(C(=O)O)cn3)ccc21 [Example 2, 6-(5,6,7,8-Tetrahydro-5,5,8,8-tetramethyl-2naphthalenylcarbamoyl) pyridine-3-carboxylic acid]",0.22 nM

# Results, then the compound that gave them:
row,EC50,Compound
1,25 nM,"CC(C)c1ccc(NC(=O)c2ccc(C(=O)O)cn2)cc1C(C)C [Example 5, 6-(3,4-Di-isopropylphenylcarbamoyl)pyridine-3-carboxylic acid]"
2,0.41 nM,"CC1(C)CCC(C)(C)c2cc(NC(=O)c3ccc(C(=O)O)cc3O)ccc21 [Example 3, 3-Hydroxy-4-(5,6,7,8-tetrahydro-5,5,8,8-tetramethyl-2-naphthalenylcarbamoyl)benzoic acid]"
3,6.5 nM,"CC1(C)CCC(C)(C)c2cc(C(=O)Nc3ccc(C(=O)O)cc3O)ccc21 [Example 4, 3-Hydroxy-4-(5,6,7,8-tetrahydro-5,5,8,8-tetramethyl-2-naphthalenylcarboxamide)benzoic acid]"
